Data from PMC5748754, “Elucidating the Skin Delivery of Aglycone and Glycoside Flavonoids: How the Structures Affect Cutaneous Absorption” (Nutrients, 2017).
≈ marks a conversion by molar mass, not a printed value. Where “and” joins values, the source holds several entries; their conditions need not be identical. Identical values can stand only once. Entries after “also recorded” stand apart in the source; their conditions may differ.

Legend:
[1] = Capacity factor (log K') by HPLC; format: physicochemical; details: HPLC C18, methanol/pH 2 phosphate buffer 1:1
Procedure: The HPLC setup for the calculation of log K’ was an HPLC system (7-series, Hitachi, Tokyo, Japan) with a LiChrospher® C18 column (200 × 4.6 mm, Merck, Darmstadt, Germany). The mobile phase consisted of a mixture of methanol and pH 2 phosphate buffer solution (1:1). The flow rate and wavelength for determination were 1 mL/min (L-7110 pump) and 256 nm (L-7455 diode array detector), respectively. The retention times of flavonoids were detected, and the log K’ was computed as log [(tr − t0)/t0], where tr and t0 were the retention time of the flavonoid and the nonretained solvent peak, respectively.

[2] = Partition coefficient (log P), n-octanol/water; format: physicochemical; details: 37 °C
Procedure: Flavonoids in methanol (0.5 mg/mL) were pipetted into a tube at a volume of 1 mL. Methanol was then evaporated under vacuum. In the amount of 1 mL of each, n-Octanol and water were incorporated into the tube. After being shaken for 24 h at 37 °C, the tube was centrifugated at 10,000× g for 10 min. The flavonoid content in both phases was analyzed by HPLC. The log P was calculated as log (flavonoid content in n-octanol/flavonoid content in water).

[3] = tested on: fMLF-activated human neutrophils (elastase release); experiment: Elastase release inhibition in fMLF-activated human neutrophils; format: cell-based; details: flavonoids at 3 µM, fMLF/cytochalasin B-activated human neutrophils; for inhibition at 3 µM: Neutrophil
Source text: (§1) The protocol was approved by the Institutional Review Board at Chang Gung Memorial Hospital, and written informed consent was obtained from all volunteers (201600500B0C101). Whole blood was withdrawn from healthy volunteers between 20 and 30 years of age. Human neutrophils were isolated using a typical method of dextran sedimentation prior to centrifugation in a Ficoll-Hypaque gradient and hypotonic lysis of erythrocytes. The granulocyte layer was harvested and suspended in calcium-free HBSS at pH 7.4, which was maintained at 4 °C until use.
(§2) The reduction of ferricytochrome c was utilized for measuring the superoxide anion (O2^•–) release from the neutrophils. The human neutrophils (6 × 10^5 cells/mL) were incubated with 0.5 mg/mL ferricytochrome c and 1 mM CaCl2 at 37 °C, and were then treated with flavonoids (3 µM) in DMSO for 10 min. Neutrophils were stimulated by adding 0.1 µM fMLF with cytochalasin B (1 µg/mL). The reduction of ferricytochrome c was monitored by the absorbance at 550 nm using a U3010 ultraviolet/visible spectrophotometer (Hitachi, Tokyo, Japan). The human neutrophils were equilibrated with an elastase substrate (MeO-Suc-Ala-Ala-Pro-Val-p-nitroanilide, 100 µM) at 37 °C for 2 min. Flavonoids at a concentration of 3 µM were added into the neutrophil suspension for 10 min. The cells were activated by fMLF and cytochalasin B for a further 10 min. Elastase release was detected by measuring the change of absorbance at 405 nm.

[4] = Franz cell skin deposition in SC-disrupted nude mouse skin; format: in vitro ADME; details: 6 mM; for skin deposition after the SC's removal / Skin deposition, fold versus intact skin (SC-stripping): SC-stripped nude mouse skin
Procedure: The full-thickness dorsal skin of the nude mouse was excised after sacrifice. The SC-stripped skin was obtained by stripping the skin surface 20 times with adhesive tape (Scotch®, 3M, Maplewood, MN, USA). The delipidized skin was achieved by incubating the skin surface onto a chloroform/methanol solution (2:1) for 2 h. To prepare the desebumed skin, the SC side of the skin was washed with cold hexane (4 °C) five times, based on the procedure of the previous study. The skin’s surface was then treated with a 40% ethanol/water solution for 2 h, a process that successfully denatured the skin’s proteins.
(§3) The cutaneous absorption of flavonoids was assessed using a Franz diffusion cell system. The excised animal skin or cellulose membrane was mounted between the donor and receptor compartments with the SC facing up toward the donor. The receptor was filled with 30% ethanol/pH 7.4 buffer and placed on a magnetic stirring plate. The effective permeation area of the cell was 0.785 cm^2. The stirring rate and temperature of the receptor were 600 rpm and 37 °C, respectively. Saturated solution or a 6 mM flavonoid suspension was prepared in 20% PEG400/pH 7.4 buffer to be loaded into the donor compartment. A 300-µL aliquot in the receptor was collected at determined durations, followed by an immediate replacement with fresh receptor medium. The amount of flavonoid in the receptor was determined by HPLC. The skin was removed from the cell after a 24-h application. After being washed with water, the skin sample was weighed and positioned in a vial with 1 mL methanol. MagNA Lyser (Roche) was used to homogenize the skin. The homogenate was centrifuged at 10,000× g for 10 min. The supernatant was analyzed by HPLC to quantify the flavonoid deposition in the skin reservoir.

[5] = tested on: fMLF-activated human neutrophils (O2•– release); experiment: Superoxide anion (O2•–) inhibition in fMLF-activated human neutrophils; format: cell-based; details: flavonoids at 3 µM, fMLF/cytochalasin B-activated human neutrophils; for inhibition at 3 µM: Homo sapiens, Neutrophil
Source text: as §1, §2

[6] = Saturated solubility in 20% PEG400/pH 7.4 buffer; format: physicochemical; details: for solubility at 2 h: aqueous with cosolvent or surfactant or cyclodextrin, thermodynamic from solid, 20% PEG400/pH 7.4 buffer, 37 °C
Procedure: The suspension was then centrifuged at 10,000× g for 10 min. The supernatant was filtered across the polyvinylidene fluoride membrane with a pore size of 0.45 µm. The resulting supernatant was analyzed by HPLC to record the solubility (mM).

[7] = In vitro Franz cell skin absorption, nude mouse skin; format: in vitro ADME; details: for S value (CSD/PC) / S value (skin deposition/flux) / flux: the sentence does not separate nude mouse and pig skin; for selectivity ratio at 24 h, 6 mM / skin deposition: nude mouse skin; for selectivity ratio at 24 h, 6 mM: read-out: S value (dermal/transdermal selectivity index, skin deposition/flux); for skin deposition: equivalent dose 6 mM, 24 h; for selectivity ratio at 24 h, 6 mM / S value (skin deposition/flux) / flux: dose 6 mM
Procedure: as §3
In the cutaneous absorption experiment, flavonoid deposition in the skin was estimated as the molar amount per mg of skin (nM/mg). In the case of the skin deposition from the saturated solution, the calibrated skin deposition (CSD) was measured as flavonoid deposition divided by the applied dose (saturated solubility). The flux (nM/cm^2/h) was estimated by the slope of the penetrated amount–time curve. The permeability coefficient (PC) was calculated from the flux divided by the saturated solubility of the flavonoids. The dermal/transdermal selectivity index (S value) was calculated using an equation of skin deposition/flux (for equivalent dose application) or CSD/PC (for saturated dose application).

[8] = In vivo cutaneous tolerance (TEWL, histology) on nude mouse back; details: 6 mM topically daily for 7 days; for histology: SC layers: H&E, versus vehicle control; for ΔTEWL (treated skin minus aqueous vehicle control): nude mouse back
Procedure: The 20% PEG400/pH 7.4 buffer loaded with flavonoids at 6 mM was topically applied daily (0.6 mL) on the nude mouse back for 7 days. The flavonoid-containing vehicle was replaced with a new one each day. After removal of the vehicle, the treated skin region was evaluated by Tewameter TM300 (Courage and Khazaka, Köln, Germany) to determine the transepidermal water loss (TEWL). Stained by hematoxylin and eosin (H&E), the treated skin was excised for histological examination after a 7-day flavonoid application.

[9] = In vitro Franz cell skin absorption, pig skin; format: in vitro ADME; details: read-out: S value (dermal/transdermal selectivity index, skin deposition/flux)
Procedure: as §3, with “After being washed with water, the skin sample was weighed and positioned in a vial with 1 mL methanol. MagNA Lyser (Roche) was used to homogenize the skin. The homogenate was centrifuged at 10,000× g for 10 min.” left out
In the cutaneous absorption experiment, flavonoid deposition in the skin was estimated as the molar amount per mg of skin (nM/mg). In the case of the skin deposition from the saturated solution, the calibrated skin deposition (CSD) was measured as flavonoid deposition divided by the applied dose (saturated solubility). […] The permeability coefficient (PC) was calculated from the flux divided by the saturated solubility of the flavonoids. […]

[10] = saturated solubility dose, skin type not separated

O=c1cc(-c2ccccc2)oc2cc(O)c(O)c(O)c12 [Baicalein]
log K’ [1]: 0.73 | logP at 24 h [2]: 3.59 ± 0.08 | inhibition at 3 µM [3]: 12.2 ± 2.15% | skin deposition after the SC's removal [4]: 0.2 nM/mg | inhibition at 3 µM [5]: 77% | O2^•– Inhibition ([5]; 3 µM): 77.48 ± 5.27% | solubility at 2 h [6]: 7.7 ± 1.9 µM (≈ 2.08 µg/mL) | calibrated skin deposition (CSD) [7, 10]: below the quantification limit | S value (CSD/PC) ([7]; saturated solubility dose): 0

O=C(O)[C@H]1O[C@@H](Oc2cc3oc(-c4ccccc4)cc(=O)c3c(O)c2O)[C@H](O)[C@@H](O)[C@@H]1O [Baicalin]
log K’ [1]: 0.42 | logP at 24 h [2]: 0.89 ± 0.02 | inhibition at 3 µM [3]: 0% | Elastase Inhibition [3]: did not change | inhibition at 3 µM [5]: 77% | O2^•– Inhibition ([5]; 3 µM): 75.73 ± 6.21% | O2^•– Inhibition ([5]; listed as baicalin, 3 µM): 76% | solubility at 2 h [6]: 5320 ± 150 µM (≈ 2370 µg/mL)

O=c1c(O)c(-c2ccc(O)cc2)oc2cc(O)cc(O)c12 [Kaempferol]
histology: SC layers [8]: SC layers could be recovered | ΔTEWL (treated skin minus aqueous vehicle control) [8]: reduced TEWL as compared to the vehicle control; also recorded: alleviated ΔTEWL | selectivity ratio at 24 h, 6 mM [9]: 1.5 | solubility at 2 h [6]: 190 ± 4.7 µM (≈ 54.4 µg/mL) | selectivity ratio at 24 h, 6 mM [7]: 2.7 | skin deposition [7]: 0.11 nM/mg | permeability coefficient (PC) [7, 10]: neglected | S value (CSD/PC) ([7]; saturated solubility dose): infinity

O=c1c(O)c(-c2cc(O)c(O)c(O)c2)oc2cc(O)cc(O)c12 [Myricetin]
log K’ [1]: 0.34 | logP at 24 h [2]: 3.18 ± 0.07 | inhibition at 3 µM [3]: 16.8 ± 4.76% | Skin deposition, fold versus intact skin (SC-stripping) [4]: > 30 x | skin deposition after the SC's removal [4]: 0.4 nM/mg | inhibition at 3 µM [5]: 42.1 ± 6.22% | solubility at 2 h [6]: 530 ± 10 µM (≈ 169 µg/mL) | S value (skin deposition/flux) [7]: ∞ | flux [7]: near zero | permeability coefficient (PC) [7, 10]: neglected | S value (CSD/PC) ([7]; saturated solubility dose): infinity

O=C1C[C@@H](c2ccc(O)cc2)Oc2cc(O)cc(O)c21 [Naringenin]
histology: SC layers [8]: SC layers could be recovered | ΔTEWL (treated skin minus aqueous vehicle control) [8]: reduced TEWL as compared to the vehicle control | ΔTEWL (treated skin minus aqueous vehicle control) ([8]; listed as naringenin): alleviated ΔTEWL | fold more soluble than baicalein ([6]; PEG400/pH 7.4 buffer solution): 470 fold | solubility at 2 h [6]: 3620 ± 280 µM (≈ 986 µg/mL) | skin deposition [7]: 0.37 nM/mg

C[C@@H]1O[C@@H](O[C@H]2[C@H](Oc3cc(O)c4c(c3)O[C@H](c3ccc(O)cc3)CC4=O)O[C@H](CO)[C@@H](O)[C@@H]2O)[C@H](O)[C@H](O)[C@H]1O [Naringin]
histology: SC layers [8]: SC layers could be recovered | solubility at 2 h [6]: > 20000 µM

O=c1c(O)c(-c2ccc(O)c(O)c2)oc2cc(O)cc(O)c12 [Quercetin]
Skin deposition, fold versus intact skin (SC-stripping) [4]: > 30 x | skin deposition after the SC's removal [4]: 1.2 nM/mg | Skin deposition, fold versus intact skin (Protein removal) ([4]; deproteinized nude mouse skin): failed to change | solubility at 2 h [6]: 380 ± 2.5 µM (≈ 115 µg/mL) | S value (skin deposition/flux) [7]: ∞ | flux [7]: near zero | permeability coefficient (PC) [7, 10]: neglected | S value (CSD/PC) ([7]; saturated solubility dose): infinity

C[C@@H]1O[C@@H](OC[C@H]2O[C@@H](Oc3c(-c4ccc(O)c(O)c4)oc4cc(O)cc(O)c4c3=O)[C@H](O)[C@@H](O)[C@@H]2O)[C@H](O)[C@H](O)[C@H]1O [Rutin]
log K’ [1]: 0.24 | inhibition at 3 µM [3]: 13.2 ± 3.39% | selectivity ratio at 24 h, 6 mM [9]: 0.4 | inhibition at 3 µM [5]: 33.9 ± 8.67% | solubility at 2 h [6]: 1840 ± 40 µM (≈ 1120 µg/mL) | selectivity ratio at 24 h, 6 mM [7]: 1.3

Kaempferol
Elastase Inhibition [3]: 18.11 ± 9.01% | O2^•– Inhibition [5]: 26.49 ± 8.41%

Naringenin
Elastase Inhibition [3]: 17.97 ± 6.62% | O2^•– Inhibition ([5]; 3 µM): 19.72 ± 8.23% | O2^•– Inhibition ([5]; listed as naringenin, 3 µM): 20%

Naringin
Elastase Inhibition [3]: 13.89 ± 9.67% | O2^•– Inhibition [5]: 21.51 ± 2.53%

Quercetin
Elastase Inhibition ([3]; 3 µM): 29% and 28.67 ± 8.51% | O2^•– Inhibition [5]: 26.44 ± 8.07%
